Results reported in US6514997B2, “Antipicornaviral compounds and compositions, their pharmaceutical uses, and materials for their synthesis” (Agouron Pharmaceuticals, Inc., priority 1999, dated 2003).
Read-outs that look alike come from different tables or passages of the source.

What was measured:
MRC-5 cells = assay: Cytotoxicity (CC50) in uninfected MRC-5 cells, XTT dye reduction; assay type: cell-based, human
Outline: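 MRC-5 cells in MEM with 10% FBS, infected at m.o.i. 0.003 or 0.004 or mock-infected, seeded 1×10^4 cells/well with compound for four days. Protection and cytotoxicity read by XTT/PMS formazan at 450/650 nm. TI = CC50/EC50.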

[1] = target: T1, Recombinant rhinovirus 3C protease, serotype 14 (Human rhinovirus 14, UniProt P03303); assay: Inhibition of rhinovirus 3C protease (FRET assay, kobs/[I]), serotype 14; assay type: biochemical
T1 construct: Recombinant rhinovirus 3C proteases; made in house
Outline: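 kobs/[I] values came from progress curves of reactions started by adding 50-100 nM protease to buffer (50 mM tris pH 7.6, 1 mM EDTA, 2% DMSO) containing compound and ~1 μM quenched DABCYL-EDANS substrate. Rising EDANS fluorescence reported cleavage.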

[2] = tested on: Coxsackievirus type B3 (CVB3); assay: Anticoxsackieviral cell culture assay (XTT, EC50), CVB3; assay type: cell-based, coxsackievirus B3 in H1-HeLa cells
Experimental: Anticoxsackieviral Cell Culture Assay:
Coxsackievirus types A-21 (CAV-21) and B3 (CVB3) were purchased from American Type Culture Collection (ATCC, Rockville, Md.). Virus stocks were propagated and antiviral assays were performed in H1-HeLa cells (ATCC). Cells were grown in minimal essential medium with 10% fetal bovine serum (Life Technologies, Gaithersburg, Md.). The ability of the compounds of this invention to protect cells against either CAV-21 or CVB3 infection was measured by the XTT dye reduction method. This method is described in Weislow et al., J. Natl. Cancer Inst. (1989), vol. 81, 577-586. H1-HeLa cells were infected with CAV-21 or CVB3 at a multiplicity of infection (m.o.i.) of 0.025 or 0.075, respectively, or mock-infected with medium only. H1-HeLa cells were plated at 4×10^4 cells per well in a 96-well plate and incubated with appropriate concentrations of the test compound. One day (CVB3) or two days (CAV-21) later, XTT/PMS was added to test plates and the amount of formazan produced was quantified spectrophotometrically at 450/650 nm. […] The therapeutic index (TI) was calculated by dividing the CC50 by the EC50.

HRV-14 = assay: Antirhinoviral H1-HeLa cell culture assay (XTT cell protection, EC50), HRV-14; assay type: cell-based, human rhinovirus (HRV) serotype-14 in H1-HeLa cells; conditions: Rhinovirus B, HRV14, H1-HeLa
Outline: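 XTT dye reduction (450/650 nm) measured survival of H1-HeLa cells two days after HRV-14 infection at m.o.i. 0.13 in the presence of compound, giving EC50. The therapeutic index is CC50 divided by EC50.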

[3] = tested on: strains of human rhinovirus (HRV); assay: Antirhinoviral H1-HeLa cell culture assay (XTT cell protection, EC50), other HRV strains; assay type: cell-based, human rhinovirus in H1-HeLa cells; conditions: read-out: EC50
Outline: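 Protection of H1-HeLa cells from rhinovirus was scored two days post-infection via XTT dye reduction read at 450/650 nm, alongside mock-infected cells for toxicity. CC50/EC50 gives the therapeutic index.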

echovirus 6 (ECHO-6) = assay: Anti-echoviral cell culture assay (EC50), ECHO-6; assay type: cell-based; conditions: Enterovirus B
[4] = pH 7.6, HRV-14, read-out: kobs/[I] (3C protease inhibition activity)
[5] = Human rhinovirus sp., H1-HeLa, HRV-Hanks
[6] = Human rhinovirus sp., HRV3, H1-HeLa, HRV-3
[7] = Human rhinovirus sp., HRV9, H1-HeLa, HRV-9
[8] = Human rhinovirus sp., HRV10, H1-HeLa, HRV-10
[9] = Human rhinovirus sp., HRV11, H1-HeLa, HRV-11
[10] = Human rhinovirus sp., HRV13, H1-HeLa, HRV-13
[11] = Human rhinovirus sp., HRV16, H1-HeLa, HRV-16
[12] = Human rhinovirus sp., HRV19, H1-HeLa, HRV-19
[13] = Human rhinovirus sp., HRV25, H1-HeLa, HRV-25
[14] = Human rhinovirus sp., HRV39, H1-HeLa, HRV-39
[15] = Human rhinovirus sp., HRV78, H1-HeLa, HRV-78
[16] = Human rhinovirus sp., HRV87, H1-HeLa, HRV-87

T1 sequence (P03303 1538-1719): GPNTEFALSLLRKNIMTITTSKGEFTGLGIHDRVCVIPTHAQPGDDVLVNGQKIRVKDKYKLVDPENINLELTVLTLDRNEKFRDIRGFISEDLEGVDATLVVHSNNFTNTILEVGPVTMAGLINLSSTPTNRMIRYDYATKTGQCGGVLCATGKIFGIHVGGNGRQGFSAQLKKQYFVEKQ

Row | Structure (SMILES) | CC50 (MRC-5 cells; line of ECHO-6) [µM] | CC50 (MRC-5 cells; line of ECHO-9) [µM] | kinact/KI [1, 4] [M⁻¹ s⁻¹] | EC50 [2] [µM] | EC50 (HRV-14) [µM] | EC50 ([3]; H1-HeLa, HRV-1A) [µM] | EC50 ([3]; H1-HeLa, HRV-2) [µM] | EC50 ([3]; H1-HeLa, HRV-23) [µM] | EC50 [3, 5] [µM] | EC50 [3, 6] [µM] | EC50 [3, 7] [µM] | EC50 [3, 9] [µM] | EC50 [3, 10] [µM] | EC50 [3, 11] [µM] | EC50 [3, 12] [µM] | EC50 [3, 13] [µM] | EC50 [3, 14] [µM] | EC50 [3, 15] [µM] | EC50 [3, 16] [µM] | EC50 (echovirus 6 (ECHO-6)) [µM] | other results
1 | CCOC(=O)/C=C/[C@H](C[C@@H]1CCNC1=O)NC(=O)[C@H](CC)n1cccc(NC(=O)c2cc(C)on2)c1=O [Compound 26, trans-(2′S,3″″S,4S)-4-(2′-{3″-[(5′″-Methylisoxazole-3′″-carbonyl)amino]-2″-oxo-2″H-pyridin-1″-yl}butyrylamino)-5-(2″″-oxopyrrolidin-3″″-yl)pent-2-enoic Acid Ethyl Ester] | > 10 | > 10 | 170000 | 0.016 | 0.055 | 0.014 | 0.016 | 0.04 | 0.054 | 0.029 | 0.045 | 0.004 | 0.058 | 0.05 | 0.065 | 0.102 | 0.047 | 0.057 | 0.021 | 0.017 | EC50 [3, 8]: 0.027 µM
2 | C#CC[C@@H](C(=O)N[C@H](/C=C/C(=O)OCC)C[C@@H]1CCNC1=O)n1cccc(NC(=O)c2cc(C)on2)c1=O [Compound 31, trans-(2′S,3″″S,4S)-4-(2′-{3″-[(5′″-Methyl-isoxazole-3′″-carbonyl)amino]-2″-oxo-2″H-pyridin-1″-yl}pent-4′-ynoyl-amino)-5-(2″″-oxopyrrolidin-3″″-yl)pent-2-enoic Acid Ethyl Ester] | – | > 10 | – | 0.024 | 0.022 | 0.036 | 0.013 | 0.042 | 0.049 | 0.021 | 0.044 | 0.005 | 0.06 | 0.038 | 0.05 | 0.087 | 0.043 | 0.061 | 0.021 | 0.021 | CC50 (MRC-5 cells; line of ECHO-11): > 10 µM; kinact/KI ([1]; pH 7.6, read-out: kobs/[I] (3C protease inhibition activity)): 223000 M⁻¹ s⁻¹; EC50 [3, 8]: 0.048 µM
3 | CCOC(=O)/C=C/[C@H](C[C@@H]1CCNC1=O)NC(=O)[C@H](Cc1ccc(F)c(F)c1)n1cccc(NC(=O)c2cc(C)on2)c1=O [Compound 33, trans-(2′S,3′″″S,4S)-4-(3′-(3″,4″-Difluorophenyl)-2′-{3′″-[(5″″-methylisoxazole-3″″-carbonyl)amino]-2′″-oxo-2′″H-pyridin-1′″-yl}propionylamino)-5-(2′″″-oxopyrrolidin-3′″″-yl)pent-2-enoic Acid Ethyl Ester] | > 10 | > 10 | 1.8e+06 | 0.003 | 0.001 | – | 0.003 | 0.003 | 0.005 | 0.003 | 0.015 | 0.003 | 0.014 | 0.006 | 0.004 | 0.028 | 0.004 | 0.005 | 0.005 | 0.015 | –
4 | C#CC[C@@H](C(=O)N[C@H](/C=C/C(=O)OC(C)(C)C)C[C@@H]1CCNC1=O)n1cccc(NC(=O)c2cc(C)on2)c1=O [Compound 41, trans-(2′S,3′″″S,4S)-4-[2′-(3″-{[1′″-(5″″-Methylisoxazol-3″″-yl)methanoyl]amino}-2′″-oxo-2′″H-pyridin-1′″-yl)pent-4″-ynoylamino]-5-(2′″″-oxopyrrolidin-3′″″-yl)pent-2-enoic Acid tert-Butyl Ester] | > 10 | > 10 | 60500 | 0.117 | 0.062 | – | 0.155 | – | – | 0.054 | 0.562 | – | – | 0.416 | – | 0.829 | 0.445 | – | 0.06 | 0.147 | –
